Test [1] concerns pMEK in B9 cells (HRAS-Q61L). The test can be described thus: Phospho-MEK AlphaScreen assay, pMEK activation in B9. The class given is cell-based, murine. The conditions noted are these: Mus musculus. As to the method: (§1) Using AlphaScreen® technology, the ability of Formula I to affect the phosphorylation of ERK and MEK in the cells was measured quantitatively. Following treatment with compound, the cells were lysed, and a sample of the lysate was transferred to an assay plate. The lysate was mixed with antibodies directed against total ERK/MEK, antibodies that recognize specific phosphorylation sites on ERK/MEK, AlphaScreen® anti-mouse IgG Acceptor beads, and Streptavidin Donor beads. Upon excitation of the donor beads with laser light at 680 nm, singlet oxygen was produced. This singlet oxygen was rapidly quenched, unless the AlphaScreen® Acceptor beads were in close proximity, in which case a proximity signal can be measured at 580 nm. In the presence of phosphorylated ERK/MEK, there is a very strong proximity signal. BRAF-V600 inhibitors affect a decrease in this proximity signal in cells expressing BRAF-V600E (e.g. A375) through a decrease in phosphorylation of the BRAF effectors ERK and MEK.
(§2) 1. One day before the assay, 50,000 cells were plated in each well of a 96-well tissue-culture-treated plate (Corning #3610) in a 50 μL volume. Cells were incubated at 37° C. overnight.
(§3) 2. Compounds were diluted in DMSO to 500× final concentration. Each compound was plated as an 8-point titration, using 1:3 dilutions in DMSO. The maximum concentration was about 5 mM.
3. […]
Background: Bead proximity is the source of the signal in Alpha formats.

Test [2] concerns pMEK in HCT116 cells (KRAS-G13D). The test can be described thus: Phospho-MEK AlphaScreen assay, pMEK activation in HCT116. Conditions: Homo sapiens, HCT-116. Type of test: cell-based. As to the method:
as §1, §2, §3
3. […]

Test [3] has as its system pMEK in IPC-298 cells (NRAS-Q61L). The test can be described thus: Phospho-MEK AlphaScreen assay, pMEK activation in IPC-298. Type of test: cell-based. Conditions: Homo sapiens. As to the method: as §1, §2, §3
3. […]

In test [4] the test system is phospho-ERK1/2 (T202/Y204, pERK) in RAS mutant and BRAF^V600E cell lines. The test can be described thus: pERK screen in cell line panel: ERK pathway inhibition index (EPII). The class given is cell-based. The conditions noted are these: for pERK activation in RAS mutant cell lines (in words): at the concentrations tested; for ERK pathway inhibition index (EPII): ratio between mean pERK activation EC50 (B9, IPC-298, HCT116) and mean pERK inhibition IC50 (A375, COLO829). As to the method: Phospho-ERK AlphaScreen® assay: The degree of ERK phosphorylation was determined using an AlphaScreen® assay where an increase in ERK1/2 phosphorylation at Thr202/Tyr204 brought the donor and acceptor AlphaScreen® beads into close proximity, generating a signal for quantification. To determine the effects of compound treatment on phosphorylation of ERK1/2, cells were plated in a 96-well plate and treated with an 8-point titration of compound for one hour at 37° C. before lysis. To detect pERK, cell lysates were incubated with streptavidin-coated AlphaScreen® donor beads, anti-mouse IgG AlphaScreen® acceptor beads, a biotinylated anti-ERK1/2 rabbit antibody, and a mouse antibody that recognizes ERK1/2 only when it is phosphorylated on Thr202 and Tyr204. The biotinylated ERK1/2 antibody binds to both the streptavidin-coated AlphaScreen® donor beads and to ERK1/2 (regardless of its phosphorylation state), and the phospho-ERK1/2 antibody binds to the acceptor beads and to ERK1/2 that is phosphorylated at Thr202/Tyr204. An increase in ERK1/2 phosphorylation at Thr202/Tyr204 brings the donor and acceptor AlphaScreen® beads into close proximity, generating a signal that can be quantified on an EnVision reader (Perkin Elmer).

Test [5] relates to cell model that expresses the same HRAS mutation prevalent in squamous cell tumors. The test can be described thus: HRAS mutant cell model: growth and MAPK pathway response gene expression. Type of test: cell-based. From the text: In a cell model that expresses the same HRAS mutation prevalent in squamous cell tumors from patients treated with RAF inhibitors, first-generation RAF inhibitors stimulate the in vitro and in vivo growth of the cells and induce the expression of MAPK pathway response genes including EGFR ligands. […] Based on these advantageous properties of the compound of either Formula I or Formula II, enhanced tolerability and, in turn, increased drug dosage may be obtained.

Another test has as its target BRAF^V600E (Homo sapiens, UniProt P15056, V600E). The test can be described thus: In vitro RAF kinase biochemical assay, BRAF V600E. As to the method: (§4) The in vitro RAF kinase activities were determined by measuring phosphorylation of a biotinylated substrate peptide as described in Tsai et al 2008. Formula II was tested against a panel of 287 kinases at concentrations of 1 μM in duplicate. […] The 287 kinases represent all major branches of the kinome phylogenetic tree. The inhibition screen of 287 kinases was carried out under contract as complementary panels at Invitrogen (Life Technologies, WI, USA) SelectScreen™ profiling service, DiscoverX (CA, USA) KINOMEScan™ service, and Reaction Biology Corporation (PA, USA) Kinase HotSpot^SM service.
BRAF proteins were produced in insect cells at Plexxikon Inc. as N-terminally His-tagged fragments encompassing the kinase domain.
(§5) 1) Test compounds in DMSO were serially diluted and plated into 384-well assay plates at 1 μL/well.
(§6) 2) Added were 15 μL/well of RAF enzyme and biotinylated-MEK1 substrate in kinase buffer.
(§7) 3) Added were 4 μL of ATP (500 μM) in kinase buffer.
(§8) 5) After a brief spin down, the plate was incubated at about room temperature for 40-50 minutes. 6) Added was 5 μL of Stop buffer at final EDTA 20 mM; anti-phospho-MEK1 1:2,500; donor/acceptor beads 3 μg/mL. 7) After brief spin down, the plate was incubated at room temperature for about 3 hours. 8) The plate was read on the Envision multilabel plate reader (Perkin Elmer). […] 2. Results

The target of another test is BRAF (Homo sapiens, UniProt P15056). The test can be described thus: In vitro RAF kinase biochemical assay, wild-type BRAF. On the procedure: as §4
BRAF, residues L416 through H766 fused at the N-terminus with a GST tag, was produced in insect cells, and BRAF was purchased from Millipore (Catalog #14-530).
as §5, §6, §7, §8

The target in the next test is T1, CRAF (Homo sapiens, UniProt P04049, Y340D/Y341D).
T1 construct: GST (N); purchased Millipore 14-352; host or cells: insect cells
The test can be described thus: In vitro RAF kinase biochemical assay, activated CRAF. On the procedure:
as §5, §6, §7, §8

The mark [6] stands for this setting: Table 1, average of more than 4 experiments, read-out: Biochemical IC50 BRAF^V600E.
Where [7] appears, read: Table 1, average of more than 4 experiments.

Where two headings read alike, the source gives them in different places. Bounds are passed on as bounds.

T1 sequence (P04049 307-648 Y340D/Y341D): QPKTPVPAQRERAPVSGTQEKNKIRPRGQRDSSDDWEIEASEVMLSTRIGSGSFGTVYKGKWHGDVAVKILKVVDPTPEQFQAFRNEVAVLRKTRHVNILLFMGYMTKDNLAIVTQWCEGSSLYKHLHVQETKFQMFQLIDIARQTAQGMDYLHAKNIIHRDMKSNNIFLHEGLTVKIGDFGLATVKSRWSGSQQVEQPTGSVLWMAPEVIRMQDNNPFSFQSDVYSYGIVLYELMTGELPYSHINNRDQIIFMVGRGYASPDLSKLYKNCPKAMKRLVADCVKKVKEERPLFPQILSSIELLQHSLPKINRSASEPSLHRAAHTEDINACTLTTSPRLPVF
Chain of BRAF (P15056 416-766): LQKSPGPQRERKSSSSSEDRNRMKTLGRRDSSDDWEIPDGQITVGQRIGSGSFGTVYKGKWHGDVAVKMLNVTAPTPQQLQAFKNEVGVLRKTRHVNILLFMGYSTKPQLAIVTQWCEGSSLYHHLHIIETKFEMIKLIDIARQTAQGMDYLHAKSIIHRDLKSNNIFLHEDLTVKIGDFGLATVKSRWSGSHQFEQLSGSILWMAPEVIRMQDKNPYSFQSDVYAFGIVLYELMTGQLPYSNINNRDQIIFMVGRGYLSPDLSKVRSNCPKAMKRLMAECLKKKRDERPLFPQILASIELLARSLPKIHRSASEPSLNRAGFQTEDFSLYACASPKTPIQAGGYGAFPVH
Chain of BRAF^V600E (P15056 448-723 V600E): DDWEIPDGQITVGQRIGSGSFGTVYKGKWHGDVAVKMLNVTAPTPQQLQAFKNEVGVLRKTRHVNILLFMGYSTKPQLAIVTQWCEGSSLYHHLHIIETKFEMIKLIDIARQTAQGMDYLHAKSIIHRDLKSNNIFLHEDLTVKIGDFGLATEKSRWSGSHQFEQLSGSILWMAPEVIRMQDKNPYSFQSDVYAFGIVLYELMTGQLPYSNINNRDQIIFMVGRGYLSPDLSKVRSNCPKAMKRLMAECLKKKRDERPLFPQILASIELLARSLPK

Regarding `CCCS(=O)(=O)Nc1ccc(F)c(C(=O)c2c[nH]c3ncc(-c4ccc(Cl)cc4)cc23)c1F` [Vemurafenib, vemurafenib, reference compound], the EC50 turned out to be 588 nM in test [1], 769 nM in test [2] and 1010 nM in test [3].
For `CCN(C)S(=O)(=O)Nc1ccc(F)c(C(=O)c2c[nH]c3ncc(-c4cnc(C5CC5)nc4)cc23)c1F` [Formula II, 5-(2-cyclopropylpyrimidin-5-yl)-3-[3-[[ethyl(methyl)sulfamoyl]amino]-2,6-difluoro-benzoyl]-1H-pyrrolo[2,3-b]pyridine], the “pERK activation in RAS mutant cell lines (in words)” value in test [4] is given as “essentially no pERK activation”. In test [4], the “ERK pathway inhibition index (EPII)” value is listed as >50,000. The “Stimulation of in vitro and in vivo growth and induction of MAPK pathway response genes including EGFR ligands (in words)” value in test [5] is on record as “no such effect”. The “IC50 against mutated BRAF kinases including BRAFV600E (in words)” value on BRAF^V600E was “single digit”. Moreover, the IC50 at BRAF^V600E (setting [6]) turned out to be 3.8 nM; at BRAF (setting [7]), 14 nM; against CRAF (setting [7]) it was 23 nM.
On to `O=C(c1c(F)ccc(NS(=O)(=O)N2CC[C@@H](F)C2)c1F)c1c[nH]c2ncc(-c3cnc(C4CC4)nc3)cc12` [Formula I, (3R)—N-[3-[5-(2-cyclopropylpyrimidin-5-yl)-1H-pyrrolo[2,3-b]pyridine-3-carbonyl]-2,4-difluorophenyl]-3-fluoropyrrolidine-1-sulfonamide], for which, in test [4], the “pERK activation in RAS mutant cell lines (in words)” value is reported as “essentially no pERK activation”. Further, in test [4], the “ERK pathway inhibition index (EPII)” value is >10,000. In addition, the “Stimulation of in vitro and in vivo growth and induction of MAPK pathway response genes including EGFR ligands (in words)” value in test [5] was “no such effect”. Moreover, the “IC50 against mutated BRAF kinases including BRAFV600E (in words)” value against BRAF^V600E is “single digit”. Further, the IC50 at BRAF^V600E (setting [6]) was determined as 4.2 nM; at BRAF^V600E (Table 3, ATP 100 μM, read-out: Biochemical IC50 BRAF_V600E), 4.4 nM; on BRAF (setting [7]), 140 nM; on BRAF (Table 3, ATP 100 μM) it was 14.3 nM; on CRAF (setting [7]) it was 91 nM; against CRAF (Table 3, ATP 100 μM) it was 22.6 nM. Moreover, the EC50 in test [1], in test [2] and in test [3] was 10000 nM each time.

For orientation: EC50 means the concentration at which the effect is half-maximal. Higher therefore signals weaker potency. For orientation: IC50 means the concentration at which inhibition is half-maximal.

The values are drawn from US9814714B2, “Kinase modulation, and indications therefor” (Plexxikon Inc., priority 2015, dated 2017).
